Laboratory results as given in US20070129436A1, “Agent for Suppressing Body Fat Accumulation” (YAMAHA HATSUDOKI KABUSHIKI KAISHA, priority 2005, published 2007).

Legend:
[1] = system: obese model mice fed with a high-fat diet; test: Effect of astaxanthin monoester on obese model mice fed with a high-fat diet; type: in vivo, male C57BL/6J strain mice
Description: Astaxanthin was administered to obese model mice fed with a high-fat diet, and the change in body weight, the amount of subcutaneous fat (in the inguinal region and the back), the amount of visceral fat (around the reproductive organs and around the kidney), and the liver weight were examined in the following manner.
Four week old male C57BL/6J strain mice (SPF) purchased from CHARLES RIVER LABORATORIES JAPAN, INC. were used. The mice were preliminarily fed for 8 days and used for the test after they reached the age of 5 weeks. The mice were divided into three groups of 8 each, that is, a normal diet group, a high-fat diet group, and a high-fat diet+astaxanthin (AX) group, so that the average body weight was equal among the groups.
During the preliminary feeding period, the mice were given an ordinary powder diet (MF, Oriental Yeast Co., Ltd.), and during the test period of 16 weeks, the mice were given the ordinary powder diet or a high-fat diet having the composition shown in Table 1 below. As to drinking water, the mice were allowed to drink freely sterile distilled water from a water supply bottle.
The astaxanthin monoester prepared in Preparation Example 1 was dissolved in an olive oil (Wako Pure Chemical Industries, Ltd.) to prepare a solution containing astaxanthin monoester at a concentration of 60 mg/mL. This solution was administered to the high-fat diet+AX group and the olive oil to the other two groups in a volume of 0.05 mL/10 g body weight every day for 16 weeks from the start of the test (at the age of 5 weeks) to the age of 21 weeks, using a probe for oral administration in the mice.
During the test period, the body weight was measured once a week using a scale. At the end of the test, the body weight was measured, and thereafter, the mice were fasted overnight and sacrificed by collecting blood from the heart. Then, the liver, the adipose tissue in the inguinal region, the adipose tissue around the reproductive organs, the adipose tissue around the kidney, and the adipose tissue in the back were collected and the weights thereof were measured.
The different types of data obtained were expressed as average values±standard errors for each group. In order to test for statistically significant differences between the high-fat diet group and the high-fat diet+AX group or the normal diet group, a multiple comparison test (ANOVA) was performed using an analysis software (Stat View, Abacus Inc., USA), and a comparison between the groups was performed using Fisher's PLSD multiple comparison test. Differences were considered statistically significant when p<0.05.

[2] = system: Human umbilical vein endothelial cells (HUVECs); test: Measurement of 50% lethal concentration for HUVEC (alamarBlue); type: cell-based
Description: Human umbilical vein endothelial cells (HUVECs) (ATCC CRL-1730) were obtained from American Type Culture Collection and precultivated in an Endothelial Cell Growth Medium (CELL APPLICATIONS, USA) containing 10% bovine fetal serum supplemented with 1% Antibiotic-Antimycotic (GIBCO BRL, USA) under a 5% CO2 atmosphere at 37° C.
A Matrigel matrix (BD Biosciences, USA) was melted and kept at 4° C. on ice, and then, 50 μL of the matrix were transferred to each well of a 96-well tissue culture plate. The plate was incubated at 37° C. for at least one hour to solidify the matrix solution.
On the other hand, the astaxanthin monoester obtained in Preparation Example 1 was dissolved in dimethylsulfoxide (DMSO), and then diluted with distilled water to prepare stock test solutions in which the astaxanthin monoester was contained in 40 (v/v) % DMSO at 25000, 2500, 250, 25, and 2.5 μM, respectively. […]
After the incubation, 20 μL of a 90% alamarBlue reagent were added to individual wells, and incubated for an additional 6 hours. Then, the fluorescence intensity of each well was measured at an excitation wavelength of 530 nm and an emission wavelength of 590 nm using a Spectrafluor Plus plate reader to count the number of living cells. […] The 50% lethal concentration was calculated as the concentration at which the number of living cells was 50% of the number of cells at the start of the experiment.

[3] = high-fat diet+AX vs high-fat diet group, oral daily for 16 weeks, end of test, FIG. 2
[4] = high-fat diet+AX vs high-fat diet group, oral daily for 16 weeks, end of test, FIG. 3

astaxanthin monoester
increase in body weight ([1]; high-fat diet+AX group vs high-fat diet group, oral, 60 mg/mL in olive oil, 0.05 mL/10 g body weight every day for 16 weeks, FIG. 1): tended to be distinctly suppressed | amount of fat accumulation in subcutaneous fat (weight) [1, 3]: significantly suppressed | amount of fat accumulation in visceral fat (weight) [1, 3]: significantly suppressed | proportion of the liver weight to body weight [1, 4]: approached that in the case of the normal diet | proportions of all of the adipose tissues to body weight (increase) [1, 4]: significantly suppressed | LC50 ([2]; 72 hours incubation, 250 μM = maximum concentration dissolved in DMSO): ≥ 250 µM | toxicity ([2]; conclusion from the LC50 for HUVECs): low
